The target of assay [1] is [Pyruvate dehydrogenase (acetyl-transferring)] kinase isozyme 1, mitochondrial (Homo sapiens, UniProt Q15118). In words: Inhibition of PDHK1 (unknown origin).
For assay [2], the target named is Serine/threonine-protein kinase B-raf (Homo sapiens, UniProt P15056). Nature of the assay: Inhibition of B-Raf (unknown origin).
Assay [3] deals with Serine/threonine-protein kinase B-raf (Homo sapiens, UniProt P15056, V600E). Nature of the assay: Inhibition of B-Raf V600E mutant (unknown origin).
Assay [4] addresses T1, Heat shock protein HSP 90-alpha (Homo sapiens, UniProt P07900). In words: Binding affinity to HSP90alpha (unknown origin) assessed as dissociation constant by fluorescence polarization assay.
For assay [5], the target named is Heat shock protein HSP 90-beta (Homo sapiens, UniProt P08238). In words: Binding affinity to HSP90beta (unknown origin) assessed as dissociation constant by fluorescence polarization assay.
Assay [6] concerns the target T1, Heat shock protein HSP 90-alpha. In words: Inhibition of HSP90alpha (unknown origin).
A further assay addresses Endoplasmin (Homo sapiens, UniProt P14625). In words: Inhibition of recombinant GRP94 (unknown origin).
For assay [7], the target named is T1, Heat shock protein HSP 90-alpha. In words: Binding affinity to recombinant HSP90alpha (unknown origin) assessed as dissociation constant measured for 24 hrs by fluorescence polarization assay.
The nature of assay [8]: Inhibition of HSP90 (unknown origin) by AlphaScreen assay. The arrangement: species or system Homo sapiens.
Assay [9] can be described thus: Inhibition of DNA topoisomerase 2 (unknown origin). The arrangement: species or system Homo sapiens.
The next assay addresses Tubulin. Nature of the assay: Inhibition of tubulin polymerization (unknown origin). Format: protein-complex assay, Homo sapiens.

13 molecules from ChEMBL document CHEMBL5614436, “Targeting HSP90 for Cancer Therapy: Current Progress and Emerging Prospects” (J Med Chem, 2024) can be followed below.

pIC50, pKd: −log10 of the molar value.

Chain of Heat shock protein HSP 90-beta (P08238 whole entry): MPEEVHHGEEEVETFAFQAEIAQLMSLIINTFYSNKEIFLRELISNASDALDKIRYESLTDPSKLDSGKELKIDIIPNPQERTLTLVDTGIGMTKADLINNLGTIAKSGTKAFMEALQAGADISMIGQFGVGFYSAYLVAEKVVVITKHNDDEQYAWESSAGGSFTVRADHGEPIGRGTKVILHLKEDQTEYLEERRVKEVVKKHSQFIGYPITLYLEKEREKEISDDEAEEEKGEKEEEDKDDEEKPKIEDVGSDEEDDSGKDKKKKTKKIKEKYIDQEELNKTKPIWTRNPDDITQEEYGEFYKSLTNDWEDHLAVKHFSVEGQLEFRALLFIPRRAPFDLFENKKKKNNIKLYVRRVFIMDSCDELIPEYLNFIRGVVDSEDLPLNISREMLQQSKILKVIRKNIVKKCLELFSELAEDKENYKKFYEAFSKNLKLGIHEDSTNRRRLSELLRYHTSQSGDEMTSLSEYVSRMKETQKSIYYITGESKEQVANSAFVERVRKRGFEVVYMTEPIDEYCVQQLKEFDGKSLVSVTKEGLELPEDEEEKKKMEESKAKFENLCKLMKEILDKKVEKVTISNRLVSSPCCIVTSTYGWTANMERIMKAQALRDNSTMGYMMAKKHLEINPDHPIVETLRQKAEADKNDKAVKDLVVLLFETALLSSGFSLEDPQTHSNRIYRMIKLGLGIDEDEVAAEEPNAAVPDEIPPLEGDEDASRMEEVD
Chain of Serine/threonine-protein kinase B-raf (Homo sapiens, UniProt P15056, V600E) (P15056 2-766 V600E limits assumed): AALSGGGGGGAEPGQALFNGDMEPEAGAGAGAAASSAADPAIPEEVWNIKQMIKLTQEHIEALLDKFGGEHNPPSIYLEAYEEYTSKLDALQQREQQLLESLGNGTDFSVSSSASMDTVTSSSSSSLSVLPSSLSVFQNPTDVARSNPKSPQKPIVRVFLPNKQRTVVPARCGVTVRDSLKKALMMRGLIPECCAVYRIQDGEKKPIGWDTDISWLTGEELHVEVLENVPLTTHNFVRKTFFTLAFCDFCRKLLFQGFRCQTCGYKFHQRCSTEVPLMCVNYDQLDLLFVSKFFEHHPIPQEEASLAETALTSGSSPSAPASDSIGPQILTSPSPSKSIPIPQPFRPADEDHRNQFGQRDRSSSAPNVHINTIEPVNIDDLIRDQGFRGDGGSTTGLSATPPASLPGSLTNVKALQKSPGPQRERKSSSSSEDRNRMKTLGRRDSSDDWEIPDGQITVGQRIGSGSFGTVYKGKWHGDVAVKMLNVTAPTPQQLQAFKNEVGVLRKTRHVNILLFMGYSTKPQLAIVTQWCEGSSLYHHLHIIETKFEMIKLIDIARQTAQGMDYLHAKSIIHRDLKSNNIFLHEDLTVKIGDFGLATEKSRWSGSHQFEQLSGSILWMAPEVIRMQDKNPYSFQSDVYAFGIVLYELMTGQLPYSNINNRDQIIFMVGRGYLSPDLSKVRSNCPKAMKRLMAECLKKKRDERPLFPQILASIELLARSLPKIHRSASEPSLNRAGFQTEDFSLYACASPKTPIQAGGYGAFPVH
Chain of [Pyruvate dehydrogenase (acetyl-transferring)] kinase isozyme 1, mitochondrial (Q15118 whole entry): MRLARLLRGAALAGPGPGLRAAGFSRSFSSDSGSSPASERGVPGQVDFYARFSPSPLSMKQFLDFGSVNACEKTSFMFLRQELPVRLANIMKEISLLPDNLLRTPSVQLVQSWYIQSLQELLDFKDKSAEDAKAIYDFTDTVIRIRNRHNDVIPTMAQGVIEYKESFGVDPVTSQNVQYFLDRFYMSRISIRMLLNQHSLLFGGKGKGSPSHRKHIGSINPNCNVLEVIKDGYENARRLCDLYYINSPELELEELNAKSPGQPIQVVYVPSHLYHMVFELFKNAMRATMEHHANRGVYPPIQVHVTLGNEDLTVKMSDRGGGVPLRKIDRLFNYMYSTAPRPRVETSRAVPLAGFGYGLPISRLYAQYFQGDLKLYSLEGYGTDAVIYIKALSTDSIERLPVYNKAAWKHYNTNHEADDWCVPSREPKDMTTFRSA
Chain of Serine/threonine-protein kinase B-raf (Homo sapiens, UniProt P15056) (P15056 whole entry): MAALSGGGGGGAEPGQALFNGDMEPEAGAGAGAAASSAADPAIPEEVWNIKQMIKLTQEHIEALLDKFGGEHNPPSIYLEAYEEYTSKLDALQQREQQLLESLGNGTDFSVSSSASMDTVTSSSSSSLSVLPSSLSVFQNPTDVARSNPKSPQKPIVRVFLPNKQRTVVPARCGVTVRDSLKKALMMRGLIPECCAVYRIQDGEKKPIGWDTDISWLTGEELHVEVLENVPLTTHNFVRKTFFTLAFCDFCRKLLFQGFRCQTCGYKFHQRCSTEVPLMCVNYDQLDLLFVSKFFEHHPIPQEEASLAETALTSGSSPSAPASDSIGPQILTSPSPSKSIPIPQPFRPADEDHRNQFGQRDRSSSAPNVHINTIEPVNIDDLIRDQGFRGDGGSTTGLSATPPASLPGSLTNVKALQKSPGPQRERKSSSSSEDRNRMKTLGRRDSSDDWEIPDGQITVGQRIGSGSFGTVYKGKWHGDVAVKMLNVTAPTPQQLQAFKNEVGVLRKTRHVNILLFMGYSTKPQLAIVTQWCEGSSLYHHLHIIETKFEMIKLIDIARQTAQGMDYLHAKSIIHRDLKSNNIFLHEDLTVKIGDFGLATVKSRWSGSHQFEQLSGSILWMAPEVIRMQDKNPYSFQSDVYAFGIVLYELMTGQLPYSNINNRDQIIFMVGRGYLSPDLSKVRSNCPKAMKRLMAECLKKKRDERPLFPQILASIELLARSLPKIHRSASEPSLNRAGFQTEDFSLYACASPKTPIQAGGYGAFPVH
Chain of Endoplasmin (P14625 whole entry): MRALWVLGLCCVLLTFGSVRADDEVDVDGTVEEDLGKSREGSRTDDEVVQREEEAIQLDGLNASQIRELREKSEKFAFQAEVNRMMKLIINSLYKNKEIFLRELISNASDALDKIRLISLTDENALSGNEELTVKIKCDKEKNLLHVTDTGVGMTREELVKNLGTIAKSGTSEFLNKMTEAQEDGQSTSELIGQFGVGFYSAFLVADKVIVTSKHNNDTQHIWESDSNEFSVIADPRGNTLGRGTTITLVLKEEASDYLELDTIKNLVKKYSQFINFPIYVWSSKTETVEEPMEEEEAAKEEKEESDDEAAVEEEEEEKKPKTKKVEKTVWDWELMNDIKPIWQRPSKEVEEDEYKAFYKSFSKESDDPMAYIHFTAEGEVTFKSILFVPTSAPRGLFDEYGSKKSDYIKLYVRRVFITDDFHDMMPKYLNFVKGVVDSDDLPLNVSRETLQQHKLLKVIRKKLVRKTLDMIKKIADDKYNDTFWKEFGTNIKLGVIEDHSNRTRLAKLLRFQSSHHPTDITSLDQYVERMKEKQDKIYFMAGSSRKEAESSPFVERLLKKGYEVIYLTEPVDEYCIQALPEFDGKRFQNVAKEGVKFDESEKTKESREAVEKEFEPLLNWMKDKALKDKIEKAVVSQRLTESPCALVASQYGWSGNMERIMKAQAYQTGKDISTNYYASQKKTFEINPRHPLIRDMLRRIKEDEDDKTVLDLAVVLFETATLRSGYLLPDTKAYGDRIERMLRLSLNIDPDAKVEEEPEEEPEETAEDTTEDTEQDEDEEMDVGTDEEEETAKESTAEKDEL

In assay [1], `COc1ccc(-c2c(/C=C/C(=O)N3CCN(c4ccccc4OC)CC3)noc2-c2cc(Cl)c(O)cc2O)cc1` had a pIC50 of 6.22.
Take `COc1ccc(-c2c(C#N)c(N)nc3sc(C(N)=O)c(N)c23)cc1OC`: the pIC50 was 4.54 in assay [2] and 5.04 in [3].
Molecule `COc1ccc(CN2CCC(NC(=O)c3noc(-c4cc(Cl)c(O)cc4O)c3-c3ccc(OC)cc3)CC2)cc1` gave a pIC50 in assay [1] of 8.00.
`CC(C)c1cc(C(=O)N2Cc3ccccc3C2)c(O)c2ccoc12`: the values for the pKd in assay [4] and in assay [5] were under 4.00 and 6.57, respectively.
For `N#Cc1c(N)nc2sc(C(N)=O)c(N)c2c1-c1ccc(Cl)cc1`, the pIC50 in assay [2] was 5.82; in assay [3], 5.60.
For the molecule `CCOc1ccccc1Cn1ccnc1CCc1c(Cl)c(O)cc(O)c1C(=O)OC`, the pIC50 in [6] is 5.09; at Endoplasmin it was 6.70.
For the molecule `CCOC(=O)c1c(O)cc(O)c(Cl)c1CC(=O)Nc1cc(O)c(OC)cc1O`, the pKd in assay [7] and in [4] was 6.06 in each case.
For `CC(C)c1cc(C(=O)N2Cc3ccc(CN4CCN(C)CC4)cc3C2)c(O)cc1O` [ONALESPIB], in assay [5], the negative logarithm of the Kd (pKd) was 5.05.
Consider `Cc1c(C)c(S(=O)(=O)Nc2ccc(Nc3ccnc(N4CCNCC4)n3)cc2)c(C)c2c1OC(C)(C)C2`, for which, in assay [4], the pKd is 5.26.
For the molecule `Cc1ccc(Sc2cc(C(=O)N3Cc4ccc(OCCC[N+](C)(C)C)cc4C3)ccc2O)cc1C`, the pKd in [4] was 6.47; in [5], under 4.00.
As to `CC1(C)CC(=O)C=C(Nc2c(N)[nH]c(=O)[nH]c2=O)C1`, the results for the negative logarithm of the IC50 (pIC50) in [8] and in assay [9] were 5.75 and 5.35, respectively.
On to `CN(C)c1ccc(/C=C2\S/C(=N/c3ccccc3Cl)NC2=O)cc1`, for which the pIC50 in assay [8] was 5.28; on Tubulin, 4.78.
For `CC(C)c1cc(C(=O)N2CCc3c(sc4nc(-c5ccc(NC(=O)Nc6ccc(F)c(Cl)c6)cc5)nc(N5CCOCC5)c34)C2)c(O)cc1O`, the pIC50 in [8] was 7.16.
